Data as given in patent US12728125B2, “Methods for treating neutropenia” (X4 Pharmaceuticals, Inc., priority 2020, dated 2026).
Marks after values point to notes of the source that are not given here. One block for each molecule: values may come before it.

Legend:
[1] = system: circulating CFU-GM, BFU-E, CFU-GEMM progenitor cells and nucleated cells; experiment: Progenitor/stem cell mobilization in mice after single subcutaneous injection; type: in vivo, C3H/HeJ mice
Experimental: A further study was conducted to determine whether X4P-001 mobilizes progenitor/stem cells in mice. All experiments were performed in […] mice. X4P-001 and AMD3 100/plerixafor were administered via single subcutaneous injection at the doses described below. The mobilization capacity of X4P-001 was assessed by the numbers of granulocyte-macrophage (CFU-GM), erythroid (BFU-E) and multipotential (CFU-GEMM) progenitor cells per mL of blood. The progenitors were stimulated to form colonies in vitro with the combination of 1 U/mL rhu EPO, 50 ng/mL rmu SLF, 5% vol/vol pokeweed mitogen mouse spleen cell conditioned medium (PWMSCM), and 0.1 mM hemin. Plates were scored 7 days after incubation at 37° C., […] and in a humidified chamber.
In the first experiment (data shown in Table 7), mice received a dose of 5 mg/kg- and the number of progenitors in the circulating blood was measured at various time points (0.25, 0.5, 1, 2, 6 and 24 hours).
An X4P-001 dose-response was performed by measurement of the number of circulating progenitors in the blood at 1 hour post-injection at various doses (1.5, 2.5, 5, 10 and 20 mg/kg).
A final experiment was performed to compare the progenitor cell mobilization capacity of X4P-001 and AMD3100/plerixafor.

CXCR4 = CXCR4 (Homo sapiens, UniProt P61073); settings: SDF-1α dose/response in calcium flux with increasing X4P-001; cited from earlier work
CXCR4, sequence (P61073 whole entry): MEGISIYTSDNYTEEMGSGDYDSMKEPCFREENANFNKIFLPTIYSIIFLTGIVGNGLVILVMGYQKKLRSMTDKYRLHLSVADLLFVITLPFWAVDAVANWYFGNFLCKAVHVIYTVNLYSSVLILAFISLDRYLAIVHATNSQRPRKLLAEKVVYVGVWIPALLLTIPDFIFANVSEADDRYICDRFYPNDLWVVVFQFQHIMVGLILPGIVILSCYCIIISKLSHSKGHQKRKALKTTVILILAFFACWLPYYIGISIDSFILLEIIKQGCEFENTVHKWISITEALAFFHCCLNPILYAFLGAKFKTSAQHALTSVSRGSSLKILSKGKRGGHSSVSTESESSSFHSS

[2] = system: hematology and coagulation; experiment: 28-day GLP oral (capsule) toxicity study in the Beagle dog with 14-day recovery; type: in vivo
Experimental: A 28-Day GLP oral (capsule) toxicology study was conducted with […]-001 in the male and female beagle dog, and hematology effects were observed, with […]-001 administered twice-daily (at least 7 hours apart) by oral capsule for 28 days. A subset of treated animals was evaluated after a 14-day recovery period. [table] [table]

[3] = system: WBC, neutrophil and lymphocyte counts; experiment: Hematologic effects of a single oral dose in the male Beagle dog; type: in vivo
Experimental: Three fasted male Beagle dogs received a single dose of X4P-001 in aqueous solution by oral gavage at dose levels of 5, 15, and 35 mg/kg (1 dog per dose level) in a volume of 1 mL/kg. Blood samples (approximately 3 mL each) were obtained at multiple timepoints from each animal by direct venipuncture of the jugular vein and collected using Vacutainer® tubes containing K3EDTA as the anticoagulant. Blood samples were obtained at pre-dose, and 0.25, 0.5, 0.75, 1, 1.5, 2, 3, 4, 7, 12, and 24 hours post-dose. Blood samples were stored at ambient room temperature prior to automated differential analysis.
Body weights were determined prior to dosing on the day of test article administration.
Hematology parameters included the following: • White Blood Cell Count (WBC) • Differential white blood cell count (absolute and relative) • Neutrophil • Lymphocytes • Monocytes • Eosinophils • Basophils • Large Unstained Cells (LUC) • Hematocrit (HCT) • Hemoglobin (HGB) • Mean Corpuscular Hemoglobin (MCH) • Mean Corpuscular Hemoglobin Concentration (MCHC) • Mean Corpuscular Volume (MCV) • Platelet Count (PLT). • Red Blood Cell Count (RBC) Results

[4] = human, in vivo
Experimental: In some embodiments, the dose is selected to provide consistent clinically relevant elevations of both ANC and ALC, with low risk of significant adverse effects. Dosage of 400 mg per day BID for 3.5 days (healthy volunteers) (Stone 2007) and 200 mg BID for 8-10 days (healthy volunteers and HIV patients) were well-tolerated with no pattern of adverse events or clinically significant laboratory changes.

[5] = in vivo
Experimental: In certain embodiments, the dosage composition may be provided twice a day in divided dosage, approximately 12 hours apart. In other embodiments, the dosage composition may be provided once daily.

[6] = 400-mg single-dose subject (Stone, 2007); cited from earlier work
[7] = cited from earlier work; for Bone pain incidence, as high as: Ferguson 2015 (filgrastim), Kirshner 2012 (pegfilgrastim)
[8] = Table 9 comparison, 5 mg/kg s.c., @ - 60″ (1 h)
[9] = females, 10 mg/kg/d, Day 28, p < 0.05
[10] = females, 30 mg/kg/d, Day 28, p < 0.05
[11] = females, 100 mg/kg/d, Day 28, p < 0.05
[12] = males, 100 mg/kg/d, Day 28, p < 0.05
[13] = Table 7 time course, 5 mg/kg s.c., @ - 2′ (2 h)
[14] = Table 7 time course, 5 mg/kg s.c., @ - 6′ (6 h)
[15] = Table 7 time course, 5 mg/kg s.c., @ - 15″ ([…])
[16] = Table 7 time course, 5 mg/kg s.c., @ - 24′ (24 h)
[17] = Table 7 time course, 5 mg/kg s.c., @ - 30″ (0.5 h)
[18] = Table 7 time course, 5 mg/kg s.c., @ - 60″ (1 h)
[19] = Table 8 dose response, 1 hour post-injection, 1.5 mg/kg
[20] = Table 8 dose response, 1 hour post-injection, 5 mg/kg
[21] = Table 8 dose response, 1 hour post-injection, 10 mg/kg
[22] = Table 8 dose response, 1 hour post-injection, 20 mg/kg
[23] = Table 9 comparison, 5 mg/kg s.c., @ - 2′ (2 h)
[24] = Table 9 comparison, 5 mg/kg s.c., @ - 15″ ([…])
[25] = Table 9 comparison, 5 mg/kg s.c., @ - 30″ (0.5 h)

Molecule: c1cc(CN2CCCNCCNCCCNCC2)ccc1CN1CCCNCCNCCCNCC1 [AMD3100, plerixafor, reference compound]
BFU (BFU-E), Mean [1, 8]: 207.7 per mL of blood
GEMM (CFU-GEMM), Mean [1, 8]: 138.5 per mL of blood
GM (CFU-GM), Mean [1, 8]: 1950.3 per mL of blood

Terminal half-life [5]: approximately 14.5 hrs
Molecule: NCCCCN(Cc1nc2ccccc2[nH]1)[C@H]1CCCc2cccnc21 [Mavorixafor, mavorixafor]
Mode of CXCR4 inhibition (CXCR4): allosteric inhibitor
Hematology results after the 14-day recovery period ([2]; 100 mg/kg dose group): returned to within normal levels
Lymphocytes (abs), increase ([2]; females, 10 mg/kg/d, Day 28): F incr 1.4×
Monocytes (abs), increase [2, 9]: F incr 1.6×†
Neutrophils (abs), increase [2, 9]: F incr 1.9×†
Lymphocytes (abs), increase [2, 10]: F incr 1.6×†
Monocytes (abs), increase [2, 10]: F incr 1.9×†
Neutrophils (abs), increase [2, 10]: F incr 2.3×†
Lymphocytes (abs), increase [2, 11]: F incr 1.4×†
Monocytes (abs), increase [2, 11]: F incr 2.4×†
Neutrophils (abs), increase [2, 11]: F incr 2.8×†
Reticulocytes, decrease [2, 11]: F decr 0.24†
Lymphocytes (abs), increase ([2]; males, 10 mg/kg/d, Day 28): M incr 1.3×;
Monocytes (abs), increase ([2]; males, 10 mg/kg/d, Day 28): M incr 1.2×;
Neutrophils (abs), increase ([2]; males, 10 mg/kg/d, Day 28): M incr 1.2×;
Lymphocytes (abs), increase ([2]; males, 30 mg/kg/d, Day 28): M incr 1.6×;
Monocytes (abs), increase ([2]; males, 30 mg/kg/d, Day 28): M incr 1.3×;
Neutrophils (abs), increase ([2]; males, 30 mg/kg/d, Day 28): M incr 1.2×;
Neutrophils (abs), increase ([2]; males, 100 mg/kg/d, Day 28): M incr 1.8×;
Lymphocytes (abs), increase [2, 12]: M incr 2.3×†;
Monocytes (abs), increase [2, 12]: M incr 1.9×†;
Time at which increases typically peaked ([3]; 5, 15, 35 mg/kg oral): 12 h
Other hematological effects ([3]; single oral dose 5, 15, 35 mg/kg): No other hematological effects were observed
Overall tolerability in clinical studies [4]: generally well tolerated
Increase in circulating white blood cells (leukocytosis) above baseline [6]: 2.9 fold
BFU (BFU-E), Mean [1, 13]: 165.3 per mL of blood
GEMM (CFU-GEMM), Mean [1, 13]: 68.9 per mL of blood
GM (CFU-GM), Mean [1, 13]: 897.5 per mL of blood
BFU (BFU-E), Mean [1, 14]: 99.9 per mL of blood
GEMM (CFU-GEMM), Mean [1, 14]: 37.6 per mL of blood
GM (CFU-GM), Mean [1, 14]: 387.5 per mL of blood
BFU (BFU-E), Mean [1, 15]: 148.8 per mL of blood
GEMM (CFU-GEMM), Mean [1, 15]: 65.6 per mL of blood
GM (CFU-GM), Mean [1, 15]: 785.1 per mL of blood
BFU (BFU-E), Mean [1, 16]: 84.6 per mL of blood
GEMM (CFU-GEMM), Mean [1, 16]: 37.7 per mL of blood
GM (CFU-GM), Mean [1, 16]: 386.3 per mL of blood
BFU (BFU-E), Mean [1, 17]: 230.4 per mL of blood
GEMM (CFU-GEMM), Mean [1, 17]: 99.6 per mL of blood
GM (CFU-GM), Mean [1, 17]: 1273.8 per mL of blood
BFU (BFU-E), Mean [1, 18]: 235.1 per mL of blood
GEMM (CFU-GEMM), Mean [1, 18]: 103.1 per mL of blood
GM (CFU-GM), Mean [1, 18]: 866.0 per mL of blood
BFU (BFU-E), Mean [1, 19]: 143.8 per mL of blood
GEMM (CFU-GEMM), Mean [1, 19]: 53.3 per mL of blood
GM (CFU-GM), Mean [1, 19]: 428.0 per mL of blood
BFU (BFU-E), Mean [1, 20]: 181.6 per mL of blood
GEMM (CFU-GEMM), Mean [1, 20]: 141.0 per mL of blood
GM (CFU-GM), Mean [1, 20]: 1119.8 per mL of blood
BFU (BFU-E), Mean [1, 21]: 268.1 per mL of blood
GEMM (CFU-GEMM), Mean [1, 21]: 224.4 per mL of blood
GM (CFU-GM), Mean [1, 21]: 1444.2 per mL of blood
BFU (BFU-E), Mean [1, 22]: 261.4 per mL of blood
GEMM (CFU-GEMM), Mean [1, 22]: 145.0 per mL of blood
GM (CFU-GM), Mean [1, 22]: 1314.2 per mL of blood
BFU (BFU-E), Mean [1, 23]: 108.5 per mL of blood
GEMM (CFU-GEMM), Mean [1, 23]: 62.4 per mL of blood
GM (CFU-GM), Mean [1, 23]: 619.6 per mL of blood
BFU (BFU-E), Mean [1, 24]: 188.9 per mL of blood
GEMM (CFU-GEMM), Mean [1, 24]: 93.8 per mL of blood
GM (CFU-GM), Mean [1, 24]: 588.3 per mL of blood
BFU (BFU-E), Mean [1, 25]: 151.9 per mL of blood
GEMM (CFU-GEMM), Mean [1, 25]: 79.0 per mL of blood
GM (CFU-GM), Mean [1, 25]: 705.9 per mL of blood
BFU (BFU-E), Mean [1, 8]: 144.3 per mL of blood
GEMM (CFU-GEMM), Mean [1, 8]: 102.2 per mL of blood
GM (CFU-GM), Mean [1, 8]: 761.4 per mL of blood

B1: filgrastim (protein, chains of the INN, looked up)
chain: MTPLGPASSLPQSFLLKCLEQVRKIQGDGAALQEKLCATYKLCHPEELVLLGHSLGIPWAPLSSCPSQALQLAGCLSQLHSGLFLYQGLLQALEGISPELGPTLDTLQLDVADFATTIWQQMEELGMAPALQPTQGAMPAFASAFQRRAGGVLVASHLQSFLEVSYRVLRHLAQP
modifications: N-terminal methionine, recombinant
notes: granulocyte colony-stimulating factor, standard of care for severe chronic neutropenia
Bone pain incidence, as high as [7]: 66%
Bone pain incidence reported on label ([7]; label): 24%

B2: pegfilgrastim (protein, chains of the INN, looked up)
chain: TPLGPASSLPQSFLLKCLEQVRKIQGDGAALQEKLCATYKLCHPEELVLLGHSLGIPWAPLSSCPSQALQLAGCLSQLHSGLFLYQGLLQALEGISPELGPTLDTLQLDVADFATTIWQQMEELGMAPALQPTQGAMPAFASAFQRRAGGVLVASHLQSFLEVSYRVLRHLAQP
modifications: PEG conjugate, N-terminal methionine
notes: pegylated G-CSF
Bone pain incidence, as high as [7]: 59%
Severe bone pain incidence ([7]; Kirshner et al. 2012): 24%
